Reference: patent US20230039836A1, “AROMATIC SULPHONAMIDES DERIVATIVES THAT INHIBITS PDI A3, THEIR SYNTHESIS AND USE” (Uniwersytet Jagiellonski, priority 2020, published 2023)

What follows are molecules tested against T1, PDI A1 (Homo sapiens, UniProt P07237) (assay: Insulin turbidometric assay, inhibition of PDI A1). Conditions: insulin reduction, turbidity at 650 nm, 60 min incubation at 37° C.; read-out: Inhibition of PDI A1 (EC 50).
T1 construct: purchased Mybiosource; host or cells: E. coli
T1 sequence (P07237 18-508, species assumed): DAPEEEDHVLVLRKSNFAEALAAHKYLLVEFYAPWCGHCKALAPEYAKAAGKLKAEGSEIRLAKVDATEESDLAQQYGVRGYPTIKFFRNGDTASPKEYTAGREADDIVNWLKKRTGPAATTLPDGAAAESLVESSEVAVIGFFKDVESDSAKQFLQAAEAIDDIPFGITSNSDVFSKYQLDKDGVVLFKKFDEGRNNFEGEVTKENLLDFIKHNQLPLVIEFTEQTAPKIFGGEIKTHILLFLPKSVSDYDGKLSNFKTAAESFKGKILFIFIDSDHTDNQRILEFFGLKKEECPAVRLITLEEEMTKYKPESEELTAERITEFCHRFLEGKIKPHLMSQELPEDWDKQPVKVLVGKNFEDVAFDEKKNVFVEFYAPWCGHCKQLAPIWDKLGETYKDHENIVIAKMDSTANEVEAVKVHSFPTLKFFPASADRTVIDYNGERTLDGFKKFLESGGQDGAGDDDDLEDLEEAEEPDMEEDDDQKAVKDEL
Format: biochemical
Procedure: The inhibitory effects compounds of invention on activity of PDI A1 was assess based on the insulin turbidometric assay. Enzymatic activity of PDIA1 was confirmed by measuring the turbidity increase at 650 nm due to insulin reduction. The assay mixture was prepared by addition 10 ug/ml PDIA1 (E.coli recombinant protein; Mybiosource), 0.1 mM phosphate buffer (pH7.6), 1 mM EDTA, 0.087 mM DTT and with or without tested compound and was incubated for 60 min, at 37° C. Reaction was started by addition insulin and DTT. Final concentration of insulin and DTT in assay mixture was 0.15 mM and 0.174 mM, respectively. Turbidity was detected at 650 nm against reference samples without PDI A1s. The measurements were performed at 650 nm using 120-s recordings.

Structure (SMILES)	EC50 [µM]
Cc1ccc(S(=O)(=O)N2CC2C(N)=O)cc1 (stereo not drawn) [Compound C-3220, 1-(p-Tolylsulfonyl)aziridine-2-carboxamide]	> 200
COC(=O)C1CN1S(=O)(=O)c1ccc(C(F)(F)F)cc1 (stereo not drawn) [Compound C-3256, Methyl 1-[4-(trifluoromethyl)phenyl]sulfonylaziridine-2-carboxylate]	0.5
Cc1ccc(S(=O)(=O)N2CC2C=O)cc1 (stereo not drawn) [Compound C-3262, 1-(p-Tolylsulfonyl)aziridine-2-carbaldehyde]	160
CC(=O)C1CN1S(=O)(=O)c1ccc(C)cc1 (stereo not drawn) [Compound C-3263, 1-[1-(p-Tolylsulfonyl)aziridin-2-yl]ethanone]	140
CCCCCCCCCCCCc1ccc(S(=O)(=O)N2CC2C(=O)OC)cc1 (stereo not drawn) [Compound C-3270, Methyl 1-(4-dodecylphenyl)sulfonylaziridine-2-carboxylate]	0.8
CCCCOc1ccc(S(=O)(=O)N2CC2C(=O)OC)cc1 (stereo not drawn) [Compound C-3271, Methyl 1-(4-butoxyphenyl)sulfonylaziridine-2-carboxylate]	1
CCCCc1ccc(S(=O)(=O)N2CC2C(C)=O)cc1 (stereo not drawn) [Compound C-3272, 1-[1-(4-Butylphenyl)sulfonylaziridin-2-yl] ethanone]	0.5
CCCCc1ccc(S(=O)(=O)N2CC2C=O)cc1 (stereo not drawn) [Compound C-3273, 1-(4-Butylphenyl)sulfonylaziridine-2-carbaldehyde]	3
CCCCCCCc1ccc(S(=O)(=O)N2CC2C(=O)OC)cc1 (stereo not drawn) [Compound C-3288, Methyl 1-(4-heptylphenyl)sulfonylaziridine-2-carboxylate]	0.4
COC(=O)C1CN1S(=O)(=O)c1ccc(C(C)(C)C)cc1 (stereo not drawn) [Compound C-3290, Methyl 1-(4-tert-butylphenyl)sulfonylaziridine-2-carboxylate]	0.4
COC(=O)C1CN1S(=O)(=O)c1ccc(-c2ccccc2)cc1 (stereo not drawn) [Compound C-3291, Methyl 1-(4-phenylphenyl)sulfonylaziridine-2-carboxylate]	0.4
CCCc1ccc(S(=O)(=O)N2CC2C(=O)OC)cc1 (stereo not drawn) [Compound C-3299, Methyl 1-(4-propylphenyl)sulfonylaziridine-2-carboxylate]	0.8
COC(=O)C1CN1S(=O)(=O)c1cccc2ccccc12 (stereo not drawn) [Compound C-3311, Methyl 1-(1-naphthylsulfonyl)aziridine-2-carboxylate]	5
CCCCc1ccc(S(=O)(=O)N2CC2C(=O)N(C)C)cc1 (stereo not drawn) [Compound C-3362, 1-(4-Butylphenyl)sulfonyl-N,N-dimethyl-aziridine-2-carboxamide]	0.5
CCCCCCc1ccc(S(=O)(=O)N2CC2C(=O)N(C)C)cc1 (stereo not drawn) [Compound C-3369, 1-(4-Hexylphenyl)sulfonyl-N,N-dimethyl-aziridine-2-carboxamide]	0.04
CN(C)C(=O)C1CN1S(=O)(=O)c1ccc(N(C)C)c2ccccc12 (stereo not drawn) [Compound C-3385, 1-[[4-(Dimethylamino)-1-naphthyl]sulfonyl] -N,N-dimethylaziridine-2-carboxamide]	0.7
CN(C)C(=O)C1CN1S(=O)(=O)c1ccc(F)cc1F (stereo not drawn) [Compound C-3403, 1-(2,4-Difluorophenyl)sulfonyl-N,N-dimethyl-aziridine-2-carboxamide]	12.3
CC(C)(C)c1ccc(S(=O)(=O)N2CC2C(N)=O)cc1 (stereo not drawn) [Compound C-3591, 1-(4-tert-Butylphenyl)sulfonylaziridine-2-carboxamide]	11
CN(C)C(=O)C1CN1S(=O)(=O)c1ccc(C(C)(C)C)cc1 (stereo not drawn) [Compound C-3594, 1-(4-tert-Butylphenyl)sulfonyl-N,N-dimethyl-aziridine-2-carboxamide]	26
Cc1ccc(S(=O)(=O)N2CC2C(=O)O)cc1 (stereo not drawn) [Compound C-3612, Lithium 1-tosylaziridine-2-carboxylate]	54.4

These molecules were tested on Lewis Lung Carcinoma (LLC) (assay: Murine model of Lewis Lung Carcinoma). Conditions: in vivo, FIG. 5.
Format: in vivo, mice
Procedure: To confirm anticancer activity of selected compounds of invention, PDI A1-inhibitors in vivo, selected compounds of invention were tested in the murine model of Lewis Lung Carcinoma (LLC). The Lewis Lung Carcinoma (LLC) cell line was obtained from the ATCC collection and was cultured in a humidified atmosphere of 5% CO2 at 37° using Dulbecco’s modified Eagle’s medium (DMEM) that contained 10% bovine serum (Sigma). Female (6-8 weeks old) C57BL/6 mice (purchased from Envigo RMS. BV., Nederland) were acclimated for one week and were fed with animal chow and water ad libitum. The C57BL/6 mice were injected s.c. with 0.5 × 10^5 LLC cells per mice in 100 µL PBS. Compounds were dissolved in DMSO and then 0.9% NaCl (DMSO final concentration 1%) were added. In each treatment group, i.p. injections of 100 µl compound were started on 1 day after tumor inoculation. Control animals injected with equal volume of 0.9% NaCl with 1% DMSO administered in the same schedule as other groups. Tumor larger radius (a) and smaller radius (b) were measured by calipers. The tumor volume (Tv) was calculated according the following formulaTv = V=4 • ab2/3. The mice in control group were sacrificed 17 days after tumor establishment. Tumor tissues were dissected, weighed and frozen in OCT compound.

Structure (SMILES)	Effect on tumour volume
CCCCCc1ccc(S(=O)(=O)N2CC2C(=O)OC)cc1 (stereo not drawn) [Compound C-3281, Methyl 1-(4-pentylphenyl)sulfonylaziridine-2-carboxylate]	diminished tumour volume
COC(=O)C1CN1S(=O)(=O)c1ccc2cc(C)ccc2c1 (stereo not drawn) [Compound C-3329, Methyl 1-[(6-methyl-2-naphthyl)sulfonyl]aziridine-2-carboxylate]	diminished tumour volume

Same assay, conditions: in vivo, FIG. 5; no evident toxicity

Structure (SMILES)	Effect on animal weight
CCCCCc1ccc(S(=O)(=O)N2CC2C(=O)OC)cc1 (stereo not drawn) [Compound C-3281, Methyl 1-(4-pentylphenyl)sulfonylaziridine-2-carboxylate]	did not modified animal weight
COC(=O)C1CN1S(=O)(=O)c1ccc2cc(C)ccc2c1 (stereo not drawn) [Compound C-3329, Methyl 1-[(6-methyl-2-naphthyl)sulfonyl]aziridine-2-carboxylate]	did not modified animal weight

The molecules below were run on HT-1080 (human fibrosarcoma) (assay: MTT antiproliferative assay, 48 h). Conditions: 48-hour exposition, read-out: Cytotoxicity, IC50, µM HT-1080.
Format: cell-based
Procedure: (§1) About 2000-4000 cells per well (depending on line nature) were placed in 96-well plates and after 24 h compounds were added to the wells. Untreated cells were used as a control. The plates were incubated for 48 h, 37° C., 5% CO2. The number of surviving cells was determined using 3-(4,5-dimethylthiazol-2-yl)-2,5-diphenyltetrazolinium bromide (MTT). MTT-test: after incubating culture medium was removed and 200 µL fresh medium with 20 µL MTT (2 mg/mL in HBSS) was added in each well of the plate. After incubation (3 hr., 37° C., 5% CO2), the medium with MTT was removed and 200 µL DMSO were added at once to each sample. The samples were tested at 540 nm on Thermo Scientific Multiskan EX microplate photometer. The half-maximal inhibitory concentration (IC50) of each compound was calculated using Graph Pad Prism® 3.0.

Structure (SMILES)	IC50 [µM]
Cc1ccc(S(=O)(=O)N2CC2C=O)cc1 (stereo not drawn) [Compound C-3262, 1-(p-Tolylsulfonyl)aziridine-2-carbaldehyde]	3.8 ± 0.3
CC(=O)C1CN1S(=O)(=O)c1ccc(C)cc1 (stereo not drawn) [Compound C-3263, 1-[1-(p-Tolylsulfonyl)aziridin-2-yl]ethanone]	7.6 ± 0.2
CCCCc1ccc(S(=O)(=O)N2CC2C(C)=O)cc1 (stereo not drawn) [Compound C-3272, 1-[1-(4-Butylphenyl)sulfonylaziridin-2-yl] ethanone]	4.5 ± 0.9
CCCCc1ccc(S(=O)(=O)N2CC2C=O)cc1 (stereo not drawn) [Compound C-3273, 1-(4-Butylphenyl)sulfonylaziridine-2-carbaldehyde]	31 ± 0.9
NC(=O)C1CN1S(=O)(=O)c1ccc(C(F)(F)F)cc1 (stereo not drawn) [Compound C-3324, 1-[4-(Trifluoromethyl)phenyl] sulfonylaziridine-2-carboxamide]	510 ± 3
CN(C)C(=O)C1CN1S(=O)(=O)c1ccc(N(C)C)cc1 (stereo not drawn) [Compound C-3357, 1-[4-(Dimethylamino)phenyl] sulfonyl-N,N-dimethyl-aziridine-2-carboxamide]	30 ± 1

These molecules were tested on MCF-7 (human breast adenocarcinoma, estrogen-positive) (assay: MTT antiproliferative assay, 48 h). Conditions: Homo sapiens, MCF7, 48-hour exposition, read-out: Cytotoxicity, IC50, µM MCF-7.
Format: cell-based
Procedure: as §1

Structure (SMILES)	IC50 [µM]
Cc1ccc(S(=O)(=O)N2CC2C=O)cc1 (stereo not drawn) [Compound C-3262, 1-(p-Tolylsulfonyl)aziridine-2-carbaldehyde]	7.2 ± 0.8
CC(=O)C1CN1S(=O)(=O)c1ccc(C)cc1 (stereo not drawn) [Compound C-3263, 1-[1-(p-Tolylsulfonyl)aziridin-2-yl]ethanone]	17 ± 0.2
CCCCc1ccc(S(=O)(=O)N2CC2C(C)=O)cc1 (stereo not drawn) [Compound C-3272, 1-[1-(4-Butylphenyl)sulfonylaziridin-2-yl] ethanone]	26 ± 0.4
CCCCc1ccc(S(=O)(=O)N2CC2C=O)cc1 (stereo not drawn) [Compound C-3273, 1-(4-Butylphenyl)sulfonylaziridine-2-carbaldehyde]	92 ± 2
COC(=O)C1CN1S(=O)(=O)c1ccc(C(C)(C)C)cc1 (stereo not drawn) [Compound C-3290, Methyl 1-(4-tert-butylphenyl)sulfonylaziridine-2-carboxylate]	29 ± 4
NC(=O)C1CN1S(=O)(=O)c1ccc(C(F)(F)F)cc1 (stereo not drawn) [Compound C-3324, 1-[4-(Trifluoromethyl)phenyl] sulfonylaziridine-2-carboxamide]	156 ± 9
CN(C)C(=O)C1CN1S(=O)(=O)c1ccc(N(C)C)cc1 (stereo not drawn) [Compound C-3357, 1-[4-(Dimethylamino)phenyl] sulfonyl-N,N-dimethyl-aziridine-2-carboxamide]	295 ± 9
CN(C)C(=O)C1CN1S(=O)(=O)c1cccc2cc(N(C)C)ccc12 (stereo not drawn) [Compound C-3377, 1-[[6-(Dimethylamino)-1-naphthyl]sulfonyl]-N,N-dimethylaziridine-2-carboxamide]	4.8 ± 0.1

What follows are molecules tested on MDA-MB-231 (human mammary breast adenocarcinoma) (assay: MTT antiproliferative assay, 48 h). Conditions: Homo sapiens, MDA-MB-231, 48-hour exposition, read-out: Cytotoxicity, IC50, µM MDA-MB-231.
Format: cell-based
Procedure: as §1

Structure (SMILES)	IC50 [µM]
Cc1ccc(S(=O)(=O)N2CC2C=O)cc1 (stereo not drawn) [Compound C-3262, 1-(p-Tolylsulfonyl)aziridine-2-carbaldehyde]	6.8 ± 0.8
CC(=O)C1CN1S(=O)(=O)c1ccc(C)cc1 (stereo not drawn) [Compound C-3263, 1-[1-(p-Tolylsulfonyl)aziridin-2-yl]ethanone]	9.1 ± 0.5
CCCCc1ccc(S(=O)(=O)N2CC2C(C)=O)cc1 (stereo not drawn) [Compound C-3272, 1-[1-(4-Butylphenyl)sulfonylaziridin-2-yl] ethanone]	8.4 ± 0.9
CCCCc1ccc(S(=O)(=O)N2CC2C=O)cc1 (stereo not drawn) [Compound C-3273, 1-(4-Butylphenyl)sulfonylaziridine-2-carbaldehyde]	35 ± 3
COC(=O)C1CN1S(=O)(=O)c1ccccc1C (stereo not drawn) [Compound C-3320, Methyl 1-(o-tolylsulfonyl)aziridine-2-carboxylate]	380 ± 15
NC(=O)C1CN1S(=O)(=O)c1ccc(C(F)(F)F)cc1 (stereo not drawn) [Compound C-3324, 1-[4-(Trifluoromethyl)phenyl] sulfonylaziridine-2-carboxamide]	102 ± 12
CN(C)C(=O)C1CN1S(=O)(=O)c1ccc(N(C)C)cc1 (stereo not drawn) [Compound C-3357, 1-[4-(Dimethylamino)phenyl] sulfonyl-N,N-dimethyl-aziridine-2-carboxamide]	25 ± 6
COC(=O)C1CN1S(=O)(=O)c1ccc2cc(N(C)C)ccc2c1 (stereo not drawn) [Compound C-3397, Methyl 1-[[6-(dimethylamino)-2-naphthyl]sulfonyl]aziridine-2-carboxylate]	38 ± 2
CCCCCCc1ccc(S(=O)(=O)N2CC2C(=O)N2CCOCC2)cc1 (stereo not drawn) [Compound C-3517, [1-(4-Hexylphenyl)sulfonylaziridin-2-yl]-morpholino-methanone]	12 ± 1

The molecules below were run on Caco-2 (human colon adenocarcinoma) (assay: MTT antiproliferative assay, 48 h). Conditions: Homo sapiens, Caco-2, 48-hour exposition, read-out: Cytotoxicity, IC50, µM CaCo-2.
Format: cell-based
Procedure: as §1

Structure (SMILES)	IC50 [µM]
Cc1ccc(S(=O)(=O)N2CC2C=O)cc1 (stereo not drawn) [Compound C-3262, 1-(p-Tolylsulfonyl)aziridine-2-carbaldehyde]	13.5 ± 0.8
CC(=O)C1CN1S(=O)(=O)c1ccc(C)cc1 (stereo not drawn) [Compound C-3263, 1-[1-(p-Tolylsulfonyl)aziridin-2-yl]ethanone]	29 ± 0.8
CCCCc1ccc(S(=O)(=O)N2CC2C(C)=O)cc1 (stereo not drawn) [Compound C-3272, 1-[1-(4-Butylphenyl)sulfonylaziridin-2-yl] ethanone]	57 ± 6
CCCCc1ccc(S(=O)(=O)N2CC2C=O)cc1 (stereo not drawn) [Compound C-3273, 1-(4-Butylphenyl)sulfonylaziridine-2-carbaldehyde]	56 ± 12
NC(=O)C1CN1S(=O)(=O)c1ccc(C(F)(F)F)cc1 (stereo not drawn) [Compound C-3324, 1-[4-(Trifluoromethyl)phenyl] sulfonylaziridine-2-carboxamide]	27 ± 3
COC(=O)C1CN1S(=O)(=O)c1ccc2cc(OC)ccc2c1 (stereo not drawn) [Compound C-3327, Methyl 1-[(6-methoxy-2-naphthyl)sulfonyl]aziridine-2-carboxylate]	150 ± 10
CN(C)C(=O)C1CN1S(=O)(=O)c1ccc(N(C)C)cc1 (stereo not drawn) [Compound C-3357, 1-[4-(Dimethylamino)phenyl] sulfonyl-N,N-dimethyl-aziridine-2-carboxamide]	61 ± 3
